Where “and” joins values, the source holds several entries; their conditions need not be identical. Identical values can stand only once.
Assays:
Phakopsora pachyrhizi = experiment: In vivo preventive test on Phakopsora test (soybeans); settings: evaluated 7 days after inoculation
Experimental: To produce a suitable preparation of active compound, 1 part by weight of active compound is mixed with the stated amounts of solvent and emulsifier, and the concentrate is diluted with water to the desired concentration. To test for preventive activity, young plants are sprayed with the preparation of active compound at the stated rate of application. After the spray coating has dried on, the plants are inoculated with an aqueous spore suspension of the causal agent of soybean rust (Phakopsora pachyrhizi) and stay for 24 h without light in an incubation cabinet at approximately 24° C. and a relative atmospheric humidity of 95%. The plants remain in the incubation cabinet at approximately 24° C. and a relative atmospheric humidity of approximately 80% and a day/night interval of 12h.
(§1) The test is evaluated 7 days after the inoculation. 0% means an efficacy which corresponds to that of the untreated control, while an efficacy of 100% means that no disease is observed.

Botrytis cinerea = experiment: In vivo preventive test on Botrytis test (beans); settings: lesion size evaluated 2 days after inoculation
Experimental: To produce a suitable preparation of active compound, 1 part by weight of active compound is mixed with the stated amounts of solvent and emulsifier, and the concentrate is diluted with water to the desired concentration. To test for preventive activity, young plants are sprayed with the preparation of active compound. After the spray coating has dried on, 2 small pieces of agar covered with growth of Botrytis cinerea are placed on each leaf. The inoculated plants are placed in a darkened chamber at 20° C. and a relative atmospheric humidity of 100%.
2 days after the inoculation, the size of the lesions on the leaves is evaluated. 0% means an efficacy which corresponds to that of the untreated control, while an efficacy of 100% means that no disease is observed.

Venturia inaequalis = experiment: In vivo preventive test on Venturia test (apples); settings: evaluated 10 days after inoculation
Experimental: (§2) To produce a suitable preparation of active compound, 1 part by weight of active compound is mixed with the stated amounts of solvent and emulsifier, and the concentrate is diluted with water to the desired concentration. To test for preventive activity, young plants are sprayed with the preparation of active compound at the stated rate of application. After the spray coating has dried on, the plants are inoculated with an aqueous conidia suspension of the causal agent of apple scab (Venturia inaequalis) and then remain for 1 day in an incubation cabinet at approximately 20° C. and a relative atmospheric humidity of 100%. The plants are then placed in a greenhouse at approximately 21° C. and a relative atmospheric humidity of approximately 90%.
The test is evaluated 10 days after the inoculation. 0% means an efficacy which corresponds to that of the untreated control, while an efficacy of 100% means that no disease is observed.

Alternaria solani = experiment: In vivo preventive test on Alternaria test (tomatoes); settings: evaluated 3 days after inoculation
Experimental: as §2, with “spore” for “conidia”, “Alternaria solani. The plants are” for “the causal agent of apple scab (Venturia inaequalis) and”, “placed” for “remain for 1 day”, “100%.” for “100%. The plants are then placed in a greenhouse at approximately 21° C. and a relative atmospheric humidity of approximately 90%.”
The test is evaluated 3 days after the inoculation. 0% means an efficacy which corresponds to that of the untreated control while an efficacy of 100% means that no disease is observed.

Pyrenophora teres = experiment: In vivo preventive Pyrenophora teres test (barley); settings: evaluated 8 days after inoculation
Experimental: (§3) To produce a suitable preparation of active compound, 1 part by weight of active compound or active compound combination is mixed with the stated amounts of solvent and emulsifier, and the concentrate is diluted with water to the desired concentration. To test for preventive activity, young plants are sprayed with the preparation of active compound or active compound combination at the stated rate of application. After the spray coating has been dried, the plants are sprayed with a spore suspension of Pyrenophora teres. The plants remain for 48 hours in an incubation cabinet at approximately 20° C. and a relative atmospheric humidity of approximately 100%. The plants are placed in the greenhouse at a temperature of approximately 20° C. and a relative atmospheric humidity of approximately 80%.
(§4) The test is evaluated 8 days after the inoculation. 0% means an efficacy which corresponds to that of the untreated control, while an efficacy of 100% means that no disease is observed.

[1] = tested on: Blumeria graminis f.sp. hordei; experiment: In vivo preventive Blumeria test (barley); settings: evaluated 7 days after inoculation
Experimental: To produce a suitable preparation of active compound, 1 part by weight of active compound or active compound combination is mixed with the stated amounts of solvent and emulsifier, and the concentrate is diluted with water to the desired concentration. To test for preventive activity, young plants are sprayed with the preparation of active compound or active compound combination at the stated rate of application. After the spray coating has been dried, the plants are dusted with spores of Blumeria graminis f.sp. hordei. The plants are placed in the greenhouse at a temperature of approximately 18° C. and a relative atmospheric humidity of approximately 80% to promote the development of mildew pustules.
as §1

Septoria tritici = experiment: In vivo preventive Septoria tritici test (wheat); settings: evaluated 21 days after inoculation
Experimental: as §3, with “suspension of Septoria tritici. The plants” for “suspension of Pyrenophora teres. The plants”, “of approximately 100% and afterwards for 60 hours at approximately 15° C. in a translucent incubation cabinet at a relative atmospheric humidity of approximately 100%. The” for “of approximately 100%. The”, “of approximately 15° C. and” for “of approximately 20° C. and”
The test is evaluated 21 days after the inoculation. 0% means an efficacy which corresponds to that of the untreated control, while an efficacy of 100% means that no disease is observed.

Leptosphaeria nodorum = experiment: In vivo preventive Leptosphaeria nodorum test (wheat); settings: evaluated 8 days after inoculation
Experimental: as §3, with “suspension of Leptosphaeria nodorum. The plants” for “suspension of Pyrenophora teres. The plants”, “of approximately 25° C. and” for “of approximately 20° C. and”
as §4

Puccinia triticina = experiment: In vivo preventive Puccinia triticina test (wheat); settings: evaluated 8 days after inoculation
Experimental: as §3, with “Puccinia triticina.” for “Pyrenophora teres.”
as §4

Compound | Efficacy in % found (Phakopsora pachyrhizi; 0.25 ppm a.i.) | Efficacy in % found (Phakopsora pachyrhizi; 0.5 ppm a.i.) [%] | Efficacy in % found (Phakopsora pachyrhizi; 1 ppm a.i.) [%] | Efficacy in % found (Botrytis cinerea; 1 ppm a.i.) | Efficacy in % found (Venturia inaequalis; 0.5 ppm a.i.) | Efficacy in % found (Alternaria solani; 0.25 ppm a.i.) | Efficacy in % found (Alternaria solani; 0.5 ppm a.i.) [%] | Efficacy in % found (Alternaria solani; 1 ppm a.i.) | Efficacy in % found (Botrytis cinerea; 0.25 ppm a.i.) [%] | Efficacy in % found (Botrytis cinerea; 0.5 ppm a.i.) [%] | Efficacy in % found (Pyrenophora teres; 25 ppm a.i.) [%] | Efficacy in % found (Pyrenophora teres; 50 ppm a.i.) [%] | Efficacy in % found (Venturia inaequalis; 1 ppm a.i.) [%] | also measured
Cn1cc(C(=O)Nc2ccccc2-c2cc(F)c(F)c(F)c2)c(C(F)F)n1 [1.008, fluxapyroxad, reference compound] | 9% and 0% | 0 | 0 | 8% and 0% | 8% and 10% | 15% and 8% | 45 | 55% and 78% |  |  |  |  |  | 
CC1CC(C)(C)c2cccc(NC(=O)c3cn(C)nc3C(F)F)c21 (centres unmarked) [1.032, 3-(difluoromethyl)-1-methyl-N-(1,1,3-trimethyl-2,3-dihydro-1H-inden-4-yl)-1H-pyrazole-4-carboxamide, reference compound] | 0% | 0 | 0 |  | 0% |  | 0 | 15% and 8% | 18 | 0 |  |  |  | 
CCC1CC(C)(C)c2cccc(NC(=O)c3cccnc3C(F)F)c21 (centres unmarked) [(I-3), 2-(difluoromethyl)-N-(3-ethyl-1,1-dimethyl-2,3-dihydro-1H-inden-4-yl)nicotinamide] | 24% | 71 |  | 0% | 11% | 15% | 45 | 45% | 0 | 4 | 13 | 38 |  | Efficacy in % found (Pyrenophora teres; 100 ppm a.i.): 50%; Efficacy in % found ([1]; 50 ppm a.i.): 29%; Efficacy in % found ([1]; 100 ppm a.i.): 57%; Efficacy in % found (Septoria tritici; 25 ppm a.i.): 17%; Efficacy in % found (Septoria tritici; 50 ppm a.i.): 83%
CC[C@@H]1CC(C)(C)c2cccc(NC(=O)c3cccnc3C(F)F)c21 [(I-4), 2-(difluoromethyl)-N-[(3R)-3-ethyl-1,1-dimethyl-2,3-dihydro-1H-inden-4-yl]nicotinamide] | 35% |  | 87 |  | 12% | 23% | 30 | 55% |  |  | 22 | 33 | 21 | Efficacy in % found (Leptosphaeria nodorum; 25 ppm a.i.): 0%; Efficacy in % found (Pyrenophora teres; 12.5 ppm a.i.): 22%; Efficacy in % found ([1]; 25 ppm a.i.): 0%; Efficacy in % found (Puccinia triticina; 12.5 ppm a.i.): 80%
CCCC1CC(C)(C)c2cccc(NC(=O)c3cccnc3C(F)F)c21 (centres unmarked) [(I-5), 2-(difluoromethyl)-N-(1,1-dimethyl-3-propyl-2,3-dihydro-1H-inden-4-yl)nicotinamide] | 78% | 84 | 85 | 0% | 0% | 0% | 8 | 15% |  |  | 0 | 0 | 15 | Efficacy in % found (Pyrenophora teres; 100 ppm a.i.): 50%; Efficacy in % found (Venturia inaequalis; 0.25 ppm a.i.): 0%; Efficacy in % found (Puccinia triticina; 25 ppm a.i.): 50%
CCC[C@@H]1CC(C)(C)c2cccc(NC(=O)c3cccnc3C(F)F)c21 [(I-6), 2-(difluoromethyl)-N-[(3R)-1,1-dimethyl-3-propyl-2,3-dihydro-1H-inden-4-yl]nicotinamide] |  | 92 |  |  | 5% | 15% | 23 | 45% | 0 | 0 |  |  | 10 | Efficacy in % found ([1]; 50 ppm a.i.): 40%; Efficacy in % found (Venturia inaequalis; 0.25 ppm a.i.): 0%; Efficacy in % found (Puccinia triticina; 25 ppm a.i.): 90%
fluopyram [1.006, reference compound] |  |  |  |  |  |  |  |  |  |  |  | 75 |  | Efficacy in % found (Leptosphaeria nodorum; 12.5 ppm a.i.): 14%; Efficacy in % found (Leptosphaeria nodorum; 25 ppm a.i.): 14%; Efficacy in % found (Pyrenophora teres; 12.5 ppm a.i.): 33%; Efficacy in % found ([1]; 100 ppm a.i.): 71%; Efficacy in % found (Septoria tritici; 25 ppm a.i.): 17%; Efficacy in % found (Puccinia triticina; 12.5 ppm a.i.): 0%
